Assay results published in patent publication US11649246B2, “Salts of 4-amino-N-(l-((3-chloro-2-fluorophenyl)amino)-6-methylisoquinolin-5-yl)thieno[3,2-D]pyrimidine-7-carboxamide, and crystalline forms thereof” (Hanmi Pharm. Co., Ltd., priority 2017, dated 2023).
Counter-ions that a name gives are not always drawn.

Legend:
Assay type in all cases: physicochemical
[1] = Water solubility of Formula (I) free base
Procedure: Formula (I) free base is poorly soluble in water with a solubility of less than 0.4 μg/mL. Salt forms of free base compounds may result in improved water solubility.

[2] = pH of aqueous solution; conditions: room temperature, Form I
Procedure: Aqueous solution pH was measured by preparing 0.01%, 0.1% and 1% aqueous solutions of Formula (I) bis-hydrochloride and then shaking the solution for 30 minutes at room temperature followed by filtration. The pH of the filtered aqueous solution was measured with a S2K713 Pocket pH meter (ISFETCOM, Japan) according to the method of the Korean Pharmacopoeia.

[3] = Solubility of bis-hydrochloride Form I by HPLC test and observation test
Procedure: Solubility was measured by HPLC according to KP, USP and EP general chapters. […] The results of solubility were same between HPLC test and observation test.

[4] = Hygroscopicity by dynamic vapor sorption (DVS); conditions: 25°, Form I
Procedure: Dynamic vapor sorption (DVS) analysis was performed in a DVS advantage (Surface measurement system, United Kingdom) analyzer at 25° C. with a relative humidity of 0% to 90%. A sample in an amount of 10 mg was placed into a wire-mesh vapor sorption balance pan and then attached to a DVS advantage dynamic vapor sorption balance via surface measurement systems. […] Upon completion of the sorption cycle, the sample was dried using the same process while maintaining a relative humidity of 0%. The changes in the sample weight during the adsorption/desorption cycle (repeated 3 times) were recorded and the hygroscopicity of the sample was measured. DVS isotherm diagrams are presented in FIGS. 1, 3, 6, 10, 13, 16 and 19 where Target PP (%) refers to relative humidity, “SORP” refers to adsorption and “DESORP” refers to desorption.
Hygroscopicity was measured by DVS where the DVS curve for Formula (I) bis-hydrochloride was recorded in a DVS Advantage I analyzer (SMS, United Kingdom). The DVS was operated over 3 cycles for measurement of the surface adsorption effects of water, from 0% RH to 90% RH at 25°.

[5] = Partition / distribution coefficient octanol-water (Sirius T3); conditions: for distributed ratio in octanol phase to water phase: ratio to 1
Procedure: The partition coefficient, Log P, was measured with a T3 (Sirius Analytical Instrument Ltd., UK). About 1 mg of Formula (I) bis-hydrochloride was added to a 15 mL GLpKa beaker, dissolved with octanol/150 mM KCl, adjusted to pH 1.8 with 0.5 N HCl, and titrated up to pH 12.2 with 0.5 N KOH. The partition coefficient of the octanol-water system was determined by correcting the difference between titration curves of the blank from the titration curve, by inserting the value of the dissociation constant measured previously.

[6] = Dissociation constant (pKa), GLpKa method, Sirius T3; conditions: as an aqueous solution, calculated by extrapolation
Procedure: Based on these pKa values, Formula (I) is believed to be weakly basic compound.
The dissociation, pKa, was measured with a T3 (Sirius Analytical Instrument Ltd., UK). About 1 mg of Formula (I) bis-hydrochloride was transferred to a GLpKa beaker, dissolved with 43% to 53% MDM solution (ISA Water/MeOH/ACN/p-Dioxane=40/20/20/20, Sirius), adjusted to pH 1.8 with 0.5 N HCl, and titrated up to pH 12.2 with 0.5 N KOH. The pKa as an aqueous solution was calculated by extrapolation.

[7] = Salt screening: solubility by HPLC according to KP, USP and EP general chapters; conditions: water, Example 1B salts; listed as HCl
Procedure: For each Example 1B salt, a mixture of 40 mL (20 v/w) of a suitable solvent and 2 g Formula (I) free base was formed with agitation at room temperature. The indicated acid (2.2 eq.) was added to the mixture and salt formation was monitored by visual check. The resulting solid bis-acid salt was stirred for 24 hr at room temperature then filtered, and washed with a suitable solvent.
The water content, solubility in water (mg/mL), appearance, salt yield (%) and PXRD results for each of the salts of Example 1B are summarized in Table 4 where “MsOH” refers to methane sulfonic acid; “BsOH” refers to benzenesulfonic acid; “OW” refers to off-white; “W” refers to white; “Cryst” refers to crystalline; and “Amorph” refers to amorphous. Solubility was measured by HPLC according to KP, USP and EP general chapters.

[8] = Hygroscopicity / water content at 25° C. and 75% RH; conditions: for Water Content (%): salt as prepared, before humidity exposure
Procedure: Various salt forms of Formula (I) were prepared from Formula (I) free base and characterized by water solubility, PXRD, DSC, DVS and hygroscopicity.

## Cc1ccc2c(Nc3cccc(Cl)c3F)nccc2c1NC(=O)c1csc2c(N)ncnc12 [Formula (I) free base, 4-amino-N-(1-((3-chloro-2-fluorophenyl)amino)-6-methylisoquinolin-5-yl)thieno[3,2-d]pyrimidine-7-carboxamide]
[1]
  solubility: < 0.4 µg/mL

## Cc1ccc2c(Nc3cccc(Cl)c3F)nccc2c1NC(=O)c1csc2c(N)ncnc12 [Formula (I) bis-hydrochloride salt, 4-amino-N-(1-((3-chloro-2-fluorophenyl)amino)-6-methylisoquinolin-5-yl)thieno[3,2-d]pyrimidine-7-carboxamide]
[2]; 0.1 mg/mL (0.01%) solution
  pH of aqueous solution: 3.9
[2]; 1 mg/mL (0.1%) solution
  pH of aqueous solution: 2.6
[2]; 10 mg/mL (1%) solution
  pH of aqueous solution: 1.8
[3]; ACN
  Solubility Observation: practically in soluble
[3]; DMSO
  Solubility Observation: freely soluble
[3]; Dichloromethane
  Solubility Observation: practically in soluble
[3]; Ethanol
  Solubility Observation: very slightly soluble
[3]; Ethyl acetate
  Solubility Observation: practically in soluble
[3]; Ethyl ether
  Solubility Observation: practically in soluble
[3]; Methanol
  Solubility Observation: sparingly soluble
[3]; Water
  Solubility Observation: practically insoluble
[3]; buffer over pH 3.0
  Solubility Observation: practically insoluble
[3]; n-Hexane
  Solubility Observation: practically in soluble
[3]; pH 1.2 buffer
  Solubility Observation: very slightly soluble
[3]; pH 2.0 buffer
  Solubility Observation: very slightly soluble
[4]; from 0% RH to 20% RH
  water absorption (DVS): about 9.4%
[4]; from 0% RH to 90% RH
  water absorption (DVS): about 14.1%
[4]; from 10% RH to ~0% RH
  water desorption (DVS): about 8.9%
[4]; from 20% RH to 90% RH
  water absorption (DVS), increased to: 14.1%
[4]; from 90% RH to 10% RH
  water desorption (DVS): about 5.2%
[5]; neutral state at pH 11 or higher
  distributed ratio in octanol phase to water phase: about 20,000
[5]; octanol/water (octanol/150 mM KCl), neutral state at pH 11 or higher
  logP: 4.33
[5]; octanol/water, pH 7.4
  logD: 5.24
[5]; pH 7.4
  distributed ratio in octanol phase to water phase: about 200,000
[6]
  pKa1: 3.86
  pKa2: 4.73
  pKa3: 10.30
[6]; listed as Formula (I) bis-hydrochloride
  pKa3: 10.30
[7]
  H2O Solubility: 120 µg/mL
[8]; 25° C. and 75% RH
  water content after hygroscopicity test: 11.7%
[8]
  Water Content (%): 6.2%
[8]; listed as HCl
  Water Content (%): 6.2%
